Assay results taken from US20100204203A1, “Chemical Compounds 637: Pyridopyrimidinediones as PDE4 Inhibitors” (priority 2007, published 2010).
Structures can show the parent of a compound that is named as a salt.

Target: recombinant Human Phosphodiesterase B2 (PDE4B2) (Homo sapiens, UniProt Q07343)
Experiment: Human Phosphodiesterase B2 Radiometric Assay (yttrium silicate SPA beads, [3H]cyclic AMP)
Type: biochemical
Settings: at 0.32 uM
How it was run: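 Read-out is scintillation proximity: yttrium silicate beads (with 18 mM ZnSO4, added to stop the reaction) bind 5′AMP formed from 8 nM [3H]cAMP over 20 min. Beforehand, compound and 0.1 mg/mL enzyme were preincubated 30 min at 30 °C in pH 7.5 HEPES buffer with MgCl2, EGTA and Brij 35; pIC50 values were curve-fitted.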

Chain of recombinant Human Phosphodiesterase B2 (PDE4B2) (Q07343 1-564 isoform Q07343-2): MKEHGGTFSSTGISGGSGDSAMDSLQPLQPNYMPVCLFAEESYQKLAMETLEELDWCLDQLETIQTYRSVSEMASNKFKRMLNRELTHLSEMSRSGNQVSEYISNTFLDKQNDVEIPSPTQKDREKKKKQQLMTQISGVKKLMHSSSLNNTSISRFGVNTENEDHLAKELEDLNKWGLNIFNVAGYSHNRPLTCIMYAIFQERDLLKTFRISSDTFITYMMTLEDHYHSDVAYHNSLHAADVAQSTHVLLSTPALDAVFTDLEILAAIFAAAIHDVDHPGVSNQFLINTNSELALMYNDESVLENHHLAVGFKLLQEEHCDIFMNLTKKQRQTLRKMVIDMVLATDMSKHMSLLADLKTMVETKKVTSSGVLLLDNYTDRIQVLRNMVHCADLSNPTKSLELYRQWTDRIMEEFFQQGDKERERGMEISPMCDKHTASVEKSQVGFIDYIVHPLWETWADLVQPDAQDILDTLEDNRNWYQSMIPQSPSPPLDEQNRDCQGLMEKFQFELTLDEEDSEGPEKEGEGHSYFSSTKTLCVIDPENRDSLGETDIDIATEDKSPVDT

Row | Structure (SMILES) | PDE4B2 (percent at a single concentration, printed in the pIC50 column) [% at 0.32 uM]
1 | CN1CCC(n2c(=O)n([C@H]3CC[C@@H](NC(=O)c4cn5cc(F)ccc5n4)CC3)c(=O)c3cc(F)cnc32)CC1 [Example 40, 6-fluoro-N-{cis-4-[6-fluoro-1-(1-methylpiperidin-4-yl)-2,4-dioxo-1,4-dihydropyrido[2,3-d]pyrimidin-3(2H)-yl]cyclohexyl}imidazo[1,2-c]pyridine-2-carboxamide] | 50

Same assay, conditions: recombinant human PDE4B2, radiometric SPA assay, 8 nM [3H]cyclic AMP

Row | Structure (SMILES) | PDE4B2 pIC50
2 | CN(C)C1(C(=O)NC2CCC(n3c(=O)c4cc(F)cnc4n(-c4cccc(-c5ccc(CN6CCC(CO)CC6)cc5)c4)c3=O)CC2)CC1 (stereo not shown) [Example 128, 1-(dimethylamino)-N-{4-[6-fluoro-1-(4′-{[4-(hydroxymethyl)piperidin-1-yl]methyl}biphenyl-3-yl)-2,4-dioxo-1,4-dihydropyrido[2,3-d]pyrimidin-3(2H)-yl]cyclohexyl}cyclopropane-carboxamide] | 9.8

Same assay, conditions: recombinant human PDE4B2, radiometric SPA assay, 8 nM [3H]cyclic AMP; read-out: PDE4B2 pIC50 (converted)

Row | Structure (SMILES) | IC50 [nM]
3 | Cc1nc(C(=O)N[C@H]2CC[C@@H](n3c(=O)c4cc(F)cnc4n(-c4cccc(-c5ccc(CN6CCN(C(C)C)CC6)cc5)c4)c3=O)CC2)cs1 [Example 244, N-{cis-4-[6-fluoro-1-{4′-[(4-isopropylpiperazin-1-yl)methyl]biphenyl-3-yl}-2,4-dioxo-1,4-di-hydropyrido[2,3-d]pyrimidin-3(2H)-yl]cyclohexyl}-2-methyl-1,3-thiazole-4-carboxamide] | 0.01
4 | O=c1c2cc(F)cnc2n(-c2cccc(-c3ccc(O)cc3CN3CCOCC3)c2)c(=O)n1[C@H]1CC[C@@H](NCc2cccc(F)c2O)CC1 [Example 280, 6-fluoro-3-{cis-4-[(3-fluoro-2-hydroxybenzyl)amino]cyclohexyl}-1-[4′-hydroxy-2′-(morpholin-4-ylmethyl)biphenyl-3-yl]pyrido[2,3-d]pyrimidine-2,4(1H,3H)-dione] | 0.794
5 | Cc1c(CN[C@H]2CC[C@@H](n3c(=O)c4cc(F)cnc4n(-c4cccc(-c5ccc(O)cc5CN5CCOCC5)c4)c3=O)CC2)nc2ccccn12 [Example 336, 6-fluoro-1-[4′-hydroxy-2′-(morpholin-4-ylmethyl)biphenyl-3-yl]-3-(cis-4-{[(3-methylimidazo[1,2-a]pyridin-2-yl)methyl]amino}cyclohexyl)pyrido[2,3-d]pyrimidine-2,4(1H,3H)-dione] | 0.0316
6 | O=c1c2cc(F)cnc2n(-c2cccc(-c3ccc(O)cc3CN3CCOCC3)c2)c(=O)n1[C@H]1CC[C@@H](NCCCc2ccccc2)CC1 [Example 248, 6-Fluoro-1-[4′-hydroxy-2′-(morpholin-4-ylmethyl)biphenyl-3-yl]-3-{cis-4-[(3-phenylpropyl)amino]cyclohexyl}pyrido[2,3-d]pyrimidine-2,4(1H,3H)-dione] | 1.26
7 | CN(C)Cc1cc(O)ccc1-c1cccc(-n2c(=O)n([C@H]3CC[C@@H](NCc4cn5cc(F)ccc5n4)CC3)c(=O)c3cc(F)cnc32)c1 [Example 277, 1-{2′-[(dimethylamino)methyl]-4′-hydroxybiphenyl-3-yl}-6-fluoro-3-(cis-4-{[(6-fluoroimidazo[1,2-a]pyridin-2-yl)methyl]amino}cyclohexyl)pyrido[2,3-d]pyrimidine-2,4(1H,3H)-dione] | 0.794
8 | CC(C)(C)OC(=O)N1CCN(Cc2ccc(-c3cccc(-n4c(=O)n([C@H]5CC[C@@H](NC(=O)c6cn7cc(F)ccc7n6)CC5)c(=O)c5cc(F)cnc54)c3)cc2)CC1 [Example 51] | 0.0398
9 | O=C(N[C@H]1CC[C@@H](n2c(=O)c3cc(F)cnc3n(-c3cccc(-c4cccc(CN5CCCCC5)c4)c3)c2=O)CC1)c1cn2cc(F)ccc2n1 [Example 14, 6-fluoro-N-{cis-4-[6-fluoro-2,4-dioxo-1-[3′-(piperidin-1-ylmethyl)biphenyl-3-yl]-1,4-dihydropyrido[2,3-d]pyrimidin-3(2H)-yl]cyclohexyl}imidazo[1,2-a]pyridine-2-carboxamide.] | 0.2
10 | Cc1nc(C(=O)N[C@H]2CC[C@@H](n3c(=O)c4cc(F)cnc4n(-c4cccc(-c5ccc(CN6CCCNCC6)cc5)c4)c3=O)CC2)cs1 [Example 349, N-{cis-4-[1-[4′-(1,4-diazepan-1-ylmethyl)biphenyl-3-yl]-6-fluoro-2,4-dioxo-1,4-dihydropyrido[2,3-d]pyrimidin-3(2H)-yl]cyclohexyl}-2-methyl-1,3-thiazole-4-carboxamide] | 0.02
11 | CN1CCCN(Cc2ccc(-c3cccc(-n4c(=O)n([C@H]5CC[C@@H](NC(=O)[C@@H](N)Cc6ccccc6)CC5)c(=O)c5cc(F)cnc54)c3)cc2)CC1 [Example 312, N-{cis-4-[6-fluoro-1-{4′-[(4-methyl-1,4-diazepan-1-yl)methyl]biphenyl-3-yl}-2,4-dioxo-1,4-dihydropyrido[2,3-d]pyrimidin-3(2H)-yl]cyclohexyl}-L-phenylalaninamide] | 0.2
12 | O=C1CN(Cc2cc(O)ccc2-c2cccc(-n3c(=O)n([C@H]4CC[C@@H](NCc5cn6cc(F)ccc6n5)CC4)c(=O)c4cc(F)cnc43)c2)CCN1 [Example 377, 6-fluoro-3-(cis-4-{[(6-fluoroimidazo[1,2-a]pyridin-2-yl)methyl]amino}cyclohexyl)-1-{4′-hydroxy-2′-[(3-oxopiperazin-1-yl)methyl]biphenyl-3-yl}pyrido[2,3-d]pyrimidine-2,4(1H,3H)-dione] | 0.0631
13 | NCc1ccc(-c2cccc(-n3c(=O)n([C@H]4CC[C@@H](NC(=O)c5cn6cc(F)ccc6n5)CC4)c(=O)c4cc(F)cnc43)c2)cc1 [Example 32, N-{cis-4-[1-[4′-(aminomethyl)biphenyl-3-yl]-6-fluoro-2,4-dioxo-1,4-dihydropyrido[2,3-d]pyrimidin-3(2H)-yl]cyclohexyl}-6-fluoroimidazo[1,2-a]pyridine-2-carboxamide Hydrochloride] | 0.158
14 | CN(Cc1cc(O)ccc1-c1cccc(-n2c(=O)n([C@H]3CC[C@@H](NCc4cn5cc(F)ccc5n4)CC3)c(=O)c3cc(F)cnc32)c1)CC1(O)CC1 [Example 322, 6-fluoro-3-(cis-4-{[(6-fluoroimidazo[1,2-c]pyridin-2-yl)methyl]amino}cyclohexyl)-1-(4′-hydroxy-2′-{[[(1-hydroxycyclopropyl)methyl](methyl)amino]methyl}biphenyl-3-yl)pyrido[2,3-d]pyrimidine-2,4(1H,3H)-dione] | 0.251
15 | Cc1c(CN[C@H]2CC[C@@H](n3c(=O)c4cc(F)cnc4n(-c4cccc(-c5ccc(CN6CCN(C(C)C)CC6)cc5)c4)c3=O)CC2)ncn1Cc1ccccc1 [Example 263, 3-(cis-4-{[(1-benzyl-5-methyl-1H-imidazol-4-yl)methyl]amino}cyclohexyl)-6-fluoro-1-{4′-[(4-isopropylpiperazin-1-yl)methyl]biphenyl-3-yl}pyrido[2,3-d] pyrimidine-2,4(1H,3H)-dione] | 1.58
16 | C[C@@H]1CN(Cc2ccc(-c3cccc(-n4c(=O)n([C@H]5CC[C@@H](NC(=O)c6nc7ccccc7[nH]6)CC5)c(=O)c5cc(F)cnc54)c3)cc2)C[C@H](C)N1 [Example 305, N-{cis-4-[1-(4′-{[(3R,5S)-3,5-dimethylpiperazin-1-yl]methyl}biphenyl-3-yl)-6-fluoro-2,4-dioxo-1,4-dihydropyrido[2,3-d]pyrimidin-3(2H)-yl]cyclohexyl}-1H-benzimidazole-2-carboxamide] | 0.0501
17 | CC(C)N(CCO)Cc1ccc(-c2cccc(-n3c(=O)n([C@H]4CC[C@@H](NC(=O)c5cn6c(n5)CCCC6)CC4)c(=O)c4cc(F)cnc43)c2)cc1 [Example 121, N-{cis-4-[6-fluoro-1-(4′-{[(2-hydroxyethyl)(isopropyl)amino]methyl}biphenyl-3-yl)-2,4-dioxo-1,4-dihydropyrido[2,3-d]pyrimidin-3(2H)-yl]cyclohexyl}-5,6,7,8-tetrahydroimidazo[1,2-a]pyridine-2-carboxamide] | 0.158
18 | O=C(N[C@H]1CC[C@@H](n2c(=O)c3cc(F)cnc3n(-c3ccc(Cc4ccccc4)cc3)c2=O)CC1)c1cn2cc(F)ccc2n1 [Example 37, N-{cis-4-[1-(4-benzylphenyl)-6-fluoro-2,4-dioxo-1,4-dihydropyrido[2,3-d]pyrimidin-3(2H)-yl]cyclohexyl}-6-fluoroimidazo[1,2-a]pyridine-2-carboxamide] | 6.31
19 | Cc1cccc(C(=O)N[C@H]2CC[C@@H](n3c(=O)c4cc(F)cnc4n(-c4cccc(-c5ccc(CN6CCC(N7CCCCC7)CC6)cc5)c4)c3=O)CC2)n1 [Example 299, N-{cis-4-[1-[4′-(1,4′-bipiperidin-1′-ylmethyl)biphenyl-3-yl]-6-fluoro-2,4-dioxo-1,4-dihydropyrido[2,3-d]pyrimidin-3(2H)-yl]cyclohexyl}-6-methylpyridine-2-carboxamide] | 0.0158
20 | CN1CCCN(Cc2ccc(-c3cccc(-n4c(=O)n([C@H]5CC[C@@H](NC(=O)c6cnc7ccccc7n6)CC5)c(=O)c5cc(F)cnc54)c3)cc2)CC1 [Example 358, N-{cis-4-[6-fluoro-1-{4′-[(4-methyl-1,4-diazepan-1-yl)methyl]biphenyl-3-yl}-2,4-dioxo-1,4-dihydropyrido[2,3-d]pyrimidin-3(2H)-yl]cyclohexyl} quinoxaline-2-carboxamide] | 0.0126
21 | Cc1cc(C(=O)N[C@H]2CC[C@@H](n3c(=O)c4cc(F)cnc4n(-c4cccc(-c5ccc(CN(C)CCN(C)C)cc5)c4)c3=O)CC2)nn1C [Example 113, N-{cis-4-[1-(4′-{[[2-(dimethylamino)ethyl](methyl)amino]methyl}biphenyl-3-yl)-6-fluoro-2,4-dioxo-1,4-dihydropyrido[2,3-d]pyrimidin-3(2H)-yl]cyclohexyl}-1,5-dimethyl-1H-pyrazole-3-carboxamide] | 0.0126
22 | O=C(N[C@H]1CC[C@@H](n2c(=O)c3cc(F)cnc3n(-c3cccc(-c4ccc(CN5CCC(N6CCCCC6)CC5)cc4)c3)c2=O)CC1)c1cn2c(n1)CCCC2 [Example 223, N-{cis-4-[1-[4′-(1,4′-bipiperidin-1′-ylmethyl)biphenyl-3-yl]-6-fluoro-2,4-dioxo-1,4-dihydropyrido[2,3-d]pyrimidin-3(2H)-yl]cyclohexyl}-5,6,7,8-tetrahydroimidazo[1,2-a]pyridine-2-carboxamide] | 0.01
